Measured values from patent publication US4812312A, “Liposome-incorporated nystatin” (Board of Regents of the University of Texas System, priority 1987, dated 1989).
Like-named read-outs stand apart in the source and are kept apart here.

Key:
[1] = system: HTLV-III/LAV; conditions: cell line H9; cited from earlier work
[2] = system: Candida albicans; experiment: Single-dose therapy with free Nys or L-Nys of disseminated C. albicans infection in mice; format: in vivo, Hale-Stoner mice; conditions: 4 mg/kg
Experimental: (§1) Hale-Stoner mice, six to eight weeks old (body weight, 20-25 g) were purchased from The University of Texas Science Park (Bastrop, TX). The mice (eight per group) were injected with 0.2 ml of C. albicans cell suspension containing 7×10^5 colony-forming units (cfu) via the tail vein. This concentration of cells was consistent in producing a disseminated infection after 48 hr, affecting liver, spleen, lungs, and kidneys primarily. Infected mice were treated with increasing doses of free-Nys, ranging from 1 mg to 4 mg/kg body weight (FIG. 5).
Mice were infected with C. albicans as described in Example 9. Groups of eight mice each were injected (iv) with various doses of free-Nys, L-Nys, empty liposomes or 5% DMSO two days after the injection of C. albicans. The survival of the animals in each group was noted and compared with that of the untreated control group.

[3] = cited from earlier work
[4] = system: mice; experiment: In vivo toxicology in Hale-Stoner mice
Experimental: Groups of eight Hale-Stoner mice (6-8 weeks old, body wt=20-25 g; Univ. of TX Science Park, Bastrop, TX) each were injected with various doses of free-Nys (in 5% DMSO diluted with saline), L-Nys, empty liposomes or 5% DMSO as control. […] After 45 days, the surviving animals were sacrificed and blood and tissue samples were obtained. Blood biochemistry examination included blood urea nitrogen, alkaline phosphatase, and lactic dehydrogenase (LDH). The organs (liver, spleen, lungs and kidneys) were obtained and preserved in 10% formalin. Tissue slices were processed for hematoxylin-eosin and Gomori methenamine silver stains.

[5] = Solubility of nystatin / polyenes; format: physicochemical
[6] = system: human RBCs; experiment: Lysis of human red blood cells (hemoglobin release at 550 nm); format: cell-based; conditions: 37 °C, 45 min
Experimental: Lysis of human red blood cells (RBCs) was quantitated by measuring the release of hemoglobin in the supernatants at 550 nm, as described previously (Mehta et al., Biochem. Biophys, Acta., Vol. 770, pp. 230-234 (1984)). Various doses of L-Nys were incubated with fresh washed human RBCs at 37° C for 45 min. Free-Nys, dissolved in dimethyl formamide (DMFA), was added to the assay at a 3% final solvent concentration. Appropriate solvent controls, empty liposomes, and empty liposomes plus free-drug were also included in each experiment. Release of hemoglobin by hypotonic lysis of the same number of human RBCs by water was taken as 100% positive control, while cells treated with PBS were taken as negative controls.

[7] = system: Candida albicans; experiment: Multiple-dose therapy with Nys or L-Nys of disseminated C. albicans infection in mice; format: in vivo, Hale-Stoner mice
Experimental: as §1
Two days after the injection of C. albicans (iv), (as described in Examples 9 and 10), the mice were treated with different doses of free-Nys, L-Nys, empty liposomes or 5% DMSO control for five consecutive days. The multiple-dose groups were also compared with appropriate cumulative single doses (see Example 10). The animals were then observed for survival or any toxicity pertaining to the treatment with five daily doses.
These experiments were terminated at 60 days, and blood and tissue samples were collected from the surviving animals after sacrifice.
Survival curves were calculated by the method of Kaplan and Meier (J. Amer. Stat. Assoc., Vol. 53, pp 457-462 […]) and tests for differences in survival distributions were based on a generalized Wilcoxon test (Gehan., Biometrika, Vol. 52, pp 203-223 (1965)). […]

[8] = orally and topically; cited from earlier work
[9] = system: Candida albicans strain 336; experiment: In vitro MIC, twofold serial dilution, C. albicans strain 336 (Table 5); format: cell-based
Experimental: (§2) Organism, culture, and assay of antifungal activity in vitro. All strains of yeast were grown overnight at 37° C. on Sabouraud dextrose agar (SDA) plates. All molds were grown at 30° C. on SDA for 3 to 10 days prior to collection of spores. The inoculum was then processed for susceptibility testing as described earlier (Hopfer et al., Antimicrob. Agents Chemotherap., Vol. 25, pp 387-389 (1984)). A twofold serial dilution method (Shadomy et al., In E. H. Lennette, et al., (eds.) Manual of Clinical Microbiology, 3rd ed. American Society for Microbiology, Washington, D.C. , pp. 647-653 (1980)) adapted to microtiter plates was used to determine the minimal inhibitory concentration (MIC) of the drugs. The MIC of L-Nys were compared with that of free-Nys. Empty liposomes and 5% dimethylsulfoxide (DMSO) were used as controls.
The antifungal activity was maintained after Nys was entrapped in liposomes with or without sterols.

[10] = system: Candida albicans; experiment: Single-dose therapy with free Nys of disseminated C. albicans infection in mice; format: in vivo, Hale-Stoner mice; conditions: single iv dose, 1 mg to 4 mg/kg
Experimental: as §1

[11] = system: Alternaria; experiment: In vitro antifungal spectrum, MIC (Table 6); format: cell-based
Experimental: as §2
(§3) The L-Nys was prepared and tested generally as described above in this and earlier examples, except for the various new fungal varieties. […] (Hopfer et al., […], Vol. 25, No. 3, pp. 387-389 (1984)).

[12] = system: Torulopsis globrata; experiment: In vitro antifungal spectrum, MIC (Table 6); format: cell-based
Experimental: as §2, §3

[13] = system: Rhizopus; experiment: In vitro antifungal spectrum, MIC (Table 6); format: cell-based
Experimental: as §2, §3

[14] = system: Candida paratropicalis; experiment: In vitro antifungal spectrum, MIC (Table 6); format: cell-based
Experimental: as §2, §3

[15] = system: Cryptococcus neoformans; experiment: In vitro antifungal spectrum, MIC (Table 6); format: cell-based
Experimental: as §2, §3

[16] = system: Fusarium; experiment: In vitro antifungal spectrum, MIC (Table 6); format: cell-based
Experimental: as §2, §3

[17] = system: Mucor; experiment: In vitro antifungal spectrum, MIC (Table 6); format: cell-based
Experimental: as §2, §3

[18] = system: Curvularia; experiment: In vitro antifungal spectrum, MIC (Table 6); format: cell-based
Experimental: as §2, §3

[19] = system: Aspergillus niger; experiment: In vitro antifungal spectrum, MIC (Table 6); format: cell-based
Experimental: as §2, §3

[20] = system: Candida tropicalis; experiment: In vitro antifungal spectrum, MIC (Table 6); format: cell-based
Experimental: as §2, §3

[21] = system: Allescheria; experiment: In vitro antifungal spectrum, MIC (Table 6); format: cell-based
Experimental: as §2, §3

[22] = system: Candida albicans; experiment: In vitro antifungal spectrum, MIC (Table 6); format: cell-based
Experimental: as §2, §3

[23] = system: Aspergillus not fumigatus; experiment: In vitro antifungal spectrum, MIC (Table 6); format: cell-based
Experimental: as §2, §3

[24] = system: Aspergillus fumigatus; experiment: In vitro antifungal spectrum, MIC (Table 6); format: cell-based
Experimental: as §2, §3

[25] = system: Aspergillus flavus; experiment: In vitro antifungal spectrum, MIC (Table 6); format: cell-based
Experimental: as §2, §3

In the case of COC(=O)[C@H]1[C@@H]2C[C@@H](O[C@@H]3O[C@H](C)[C@@H](O)[C@H](N)[C@@H]3O)/C=C/C=C/C=C/C=C/C=C/C=C/C=C/[C@H](C)[C@@H](O)[C@@H](C)[C@H](C)OC(=O)C[C@H](O)C[C@H](O)CC[C@@H](O)[C@H](O)C[C@H](O)C[C@](O)(C[C@@H]1O)O2 [amphotericin B methyl ester ascorbate], the “replication of HTLV-III/LAV in H9 cells” value [1] is listed as “inhibited”.
In the case of C[C@@H]1[C@H](O)[C@@H](C)/C=C/C=C/C=C/C=C/C=C/C=C/C=C/[C@H](O[C@@H]2O[C@H](C)[C@@H](O)[C@H](N)[C@@H]2O)C[C@@H]2O[C@](O)(C[C@@H](O)C[C@@H](O)[C@H](O)CC[C@@H](O)C[C@@H](O)CC(=O)O[C@H]1C)C[C@H](O)[C@H]2C(=O)O [amphotericin B], the “replication of HTLV-III/LAV in H9 cells” value [1] is listed as “inhibited”.
For C[C@@H]1[C@H](O)[C@@H](C)/C=C/C=C/CC/C=C/C=C/C=C/C=C/C(O[C@H]2O[C@H](C)[C@@H](O)[C@H](N)[C@@H]2O)CC2O[C@](O)(CC(O)C(O)CCC(O)CC(O)CC(O)CC(=O)O[C@H]1C)CC(O)C2C(=O)O (some centres unmarked) [free-Nys, nystatin], the “therapeutic effect in vivo” value [2] is given as “no therapeutic effect in vivo”, the solubility in water ([3]; listed as Nys) is given as “substantially water-insoluble” and the solubility in water ([3]; listed as Nystatin) is given as “aqueous insolubility”. The mortality ([4]; 4.4 mg/kg, mice, iv) was “all the animals died immediately”, the “toxicity and efficacy when administered intravenously” value ([4]; intravenous, summary) was “toxic and noneffective when administered intravenously” and the “maximal tolerated dose (MTD)” value ([4]; mice, iv, per body weight) was 4 mg/kg. The “soluble in DMFA” value ([5]; N,N-dimethylformamide) was 15 mg/mL, the “soluble in DMSO” value ([5]; dimethyl sulfoxide) was 40 mg/mL and the soluble in methanol ([5]; methanol) was 1 mg/mL. The “lysis of human RBCs” value ([6]; 120 ug/ml) was 100%, the “concentration range with linear increase in lysis of human RBCs” value [6] was 60 to 120 µg/mL and the survival time ([7]; single or multiple doses) was 10 days. The “survival of infected mice” value ([7]; single or multiple doses (MTD, five consecutive days)) was “died as rapidly as the untreated controls”, the tolerability [8] was “Tolerated well both orally and topically” and the Minimal Inhibitory Concentration [9] was 1.0 µg/mL. For the same compound, the “survival of infected mice versus untreated control” value [10] was “None of the doses tested improved the survival of infected mice”, the “Minimal Inhibitory Concentration” value [11] was 2 µg/mL and the “Minimal Inhibitory Concentration” value ([12]; Torulopsis globrata #1) was 4 µg/mL. The “Minimal Inhibitory Concentration” value ([12]; Torulopsis globrata #2) was 2 µg/mL, the “Minimal Inhibitory Concentration” value ([12]; Torulopsis globrata #3) was 4 µg/mL and the “Minimal Inhibitory Concentration” value ([12]; Torulopsis globrata #4) was 4 µg/mL. For the same compound, the “Minimal Inhibitory Concentration” value [13] was 4 µg/mL, the “Minimal Inhibitory Concentration” value ([14]; C. paratropicalis #1) was 2 µg/mL and the “Minimal Inhibitory Concentration” value ([14]; C. paratropicalis #2) was 2 µg/mL. For the same compound, the “Minimal Inhibitory Concentration” value ([14]; C. paratropicalis #3) was 4 µg/mL, the “Minimal Inhibitory Concentration” value ([14]; C. paratropicalis #4) was 4 µg/mL and the “Minimal Inhibitory Concentration” value ([15]; Cryptococcus neoformans #1) was 4 µg/mL. For the same compound, the “Minimal Inhibitory Concentration” value ([15]; Cryptococcus neoformans #2) was 4 µg/mL, the “Minimal Inhibitory Concentration” value [16] was 62.5 µg/mL and the “Minimal Inhibitory Concentration” value [17] was 2 µg/mL. For the same compound, the “Minimal Inhibitory Concentration” value [18] was 2 µg/mL, the “Minimal Inhibitory Concentration” value [19] was 4 µg/mL and the “Minimal Inhibitory Concentration” value ([20]; C. tropicalis #1) was 16 µg/mL. The “Minimal Inhibitory Concentration” value ([20]; C. tropicalis #2) was 8 µg/mL, the “Minimal Inhibitory Concentration” value ([20]; C. tropicalis #3) was 4 µg/mL and the “Minimal Inhibitory Concentration” value ([20]; C. tropicalis #4) was 4 µg/mL. For the same compound, the “Minimal Inhibitory Concentration” value [21] was 16 µg/mL, the “Minimal Inhibitory Concentration” value ([22]; C. albicans #1) was 2 µg/mL and the “Minimal Inhibitory Concentration” value ([22]; C. albicans #2) was 2 µg/mL. The “Minimal Inhibitory Concentration” value ([22]; C. albicans #3) was 4 µg/mL, the “Minimal Inhibitory Concentration” value ([22]; C. albicans #4) was 4 µg/mL and the “Minimal Inhibitory Concentration” value ([22]; C. albicans #5) was 8 µg/mL. For the same compound, the “Minimal Inhibitory Concentration” value ([22]; C. albicans #6) was 4 µg/mL, the “Minimal Inhibitory Concentration” value ([22]; C. albicans #7) was 8 µg/mL and the “Minimal Inhibitory Concentration” value ([22]; C. albicans #8) was 8 µg/mL. For the same compound, the “Minimal Inhibitory Concentration” value ([22]; C. albicans #9) was 4 µg/mL, the “Minimal Inhibitory Concentration” value ([22]; C. albicans #10) was 4 µg/mL and the “Minimal Inhibitory Concentration” value ([23]; Aspergillus not fumigatus #1) was 4 µg/mL. The “Minimal Inhibitory Concentration” value ([23]; Aspergillus not fumigatus #2) was 16 µg/mL, the “Minimal Inhibitory Concentration” value [24] was 8 µg/mL and the “Minimal Inhibitory Concentration” value [25] was 1 µg/mL.
